Experimental data as given in ChEMBL document CHEMBL5465560, “Selectivity Literature for EUbOPEN Chemogenomic Library” (2024).

Assays:
[1] = molecular target: Protein kinase C theta type (Homo sapiens, UniProt Q04759); assay: Selectivity interaction (KinomeScan (DiscoverX)) EUB0001049a PRKCQ; conditions: at 1 µM
[2] = molecular target: T1, Mitogen-activated protein kinase kinase kinase 2 (Homo sapiens) (UniProt Q9Y2U5); assay: Selectivity interaction (Kinase panel (KiNativ target engagement assay in Jurkat cells)) EUB0001635a MAP3K2; format: cell-based; conditions: at 1 µM
T1 sequence (whole entry): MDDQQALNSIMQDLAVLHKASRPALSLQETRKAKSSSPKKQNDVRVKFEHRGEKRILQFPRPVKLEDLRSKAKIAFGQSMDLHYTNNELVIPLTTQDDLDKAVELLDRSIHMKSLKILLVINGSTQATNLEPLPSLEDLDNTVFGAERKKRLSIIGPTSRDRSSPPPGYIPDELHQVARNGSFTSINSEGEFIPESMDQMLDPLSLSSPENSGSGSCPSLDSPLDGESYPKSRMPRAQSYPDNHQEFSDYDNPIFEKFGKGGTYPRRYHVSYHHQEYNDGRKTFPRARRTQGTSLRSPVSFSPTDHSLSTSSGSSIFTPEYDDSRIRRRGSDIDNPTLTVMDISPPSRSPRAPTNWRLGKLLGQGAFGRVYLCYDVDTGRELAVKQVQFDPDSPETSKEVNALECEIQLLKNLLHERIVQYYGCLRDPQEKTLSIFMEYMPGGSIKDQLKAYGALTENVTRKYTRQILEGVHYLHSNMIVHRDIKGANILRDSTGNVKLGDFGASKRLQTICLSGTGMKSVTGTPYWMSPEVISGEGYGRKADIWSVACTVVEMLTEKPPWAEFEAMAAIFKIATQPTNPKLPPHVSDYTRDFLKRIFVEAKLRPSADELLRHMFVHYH

[3] = molecular target: RAF proto-oncogene serine/threonine-protein kinase (Homo sapiens) (UniProt P04049); assay: Selectivity interaction (Kinase screening (Upstate/Millipore)) EUB0000604a RAF1
[4] = molecular target: Vascular endothelial growth factor receptor 2 (Homo sapiens, UniProt P35968); conditions: at 10 µM
[5] = molecular target: Mitogen-activated protein kinase kinase kinase kinase 4 (Homo sapiens, UniProt O95819); conditions: at 10 µM
[6] = molecular target: Serine/threonine-protein kinase 10 (Homo sapiens) (UniProt O94804); conditions: at 10 µM
[7] = molecular target: T2, Serine/threonine-protein kinase 17A (Homo sapiens) (UniProt Q9UEE5); assay: Selectivity interaction (KinomeScan (DiscoverX)) EUB0000655a STK17A; conditions: at 10 µM
T2 sequence (whole entry): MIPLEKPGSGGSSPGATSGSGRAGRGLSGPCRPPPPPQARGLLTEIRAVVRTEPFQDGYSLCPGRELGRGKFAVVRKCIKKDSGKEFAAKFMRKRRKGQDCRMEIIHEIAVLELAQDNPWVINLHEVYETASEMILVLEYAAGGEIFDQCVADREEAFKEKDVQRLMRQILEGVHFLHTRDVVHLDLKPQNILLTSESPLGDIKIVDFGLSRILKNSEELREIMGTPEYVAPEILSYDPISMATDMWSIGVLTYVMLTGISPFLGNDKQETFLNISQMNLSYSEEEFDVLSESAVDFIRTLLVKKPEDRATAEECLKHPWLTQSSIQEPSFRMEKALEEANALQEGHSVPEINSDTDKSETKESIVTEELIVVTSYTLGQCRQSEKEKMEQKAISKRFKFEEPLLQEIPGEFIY

[8] = molecular target: Dual specificity protein kinase CLK2 (Homo sapiens, UniProt P49760); assay: Selectivity interaction (SelectScreen profiling (Invitrogen)) EUB0000607a CLK2; conditions: at 2 µM
[9] = molecular target: Glycogen synthase kinase-3 beta (Homo sapiens, UniProt P49841); assay: Selectivity interaction (KinomeScan (DiscoverX)) EUB0000607a GSK3B; conditions: at 10 µM
[10] = molecular target: Serine/threonine-protein kinase Nek7 (Homo sapiens) (UniProt Q8TDX7); assay: Selectivity interaction (SelectScreen profiling (Invitrogen)) EUB0000607a NEK7; conditions: at 2 µM
[11] = molecular target: Serine/threonine-protein kinase NIM1 (Homo sapiens, UniProt Q8IY84); assay: Selectivity interaction (KinomeScan (DiscoverX)) EUB0000607a NIM1K; conditions: at 10 µM
[12] = molecular target: T3, RNA 5'-monophosphate methyltransferase (Homo sapiens) (UniProt Q7Z5W3); assay: Selectivity interaction (Methyltransferase screen (radiometric assays, panel of 8 PRMTs, 21 protein lysine methyltransferases, 3 DNA methyltransferases, and one RNA methyltransferase)) EUB0000272b BCDIN3D
T3 sequence (whole entry): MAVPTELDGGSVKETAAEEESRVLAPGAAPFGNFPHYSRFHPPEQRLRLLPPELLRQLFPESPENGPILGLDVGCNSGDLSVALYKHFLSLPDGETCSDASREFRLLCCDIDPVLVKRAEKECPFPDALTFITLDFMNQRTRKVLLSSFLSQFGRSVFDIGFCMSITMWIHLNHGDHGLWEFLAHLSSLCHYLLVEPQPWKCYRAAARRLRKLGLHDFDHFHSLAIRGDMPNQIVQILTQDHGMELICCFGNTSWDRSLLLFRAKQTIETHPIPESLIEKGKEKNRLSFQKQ

[13] = molecular target: T4, Dual specificity tyrosine-phosphorylation-regulated kinase 4 (Homo sapiens) (UniProt Q9NR20); assay: Selectivity interaction (Kinase panel (Z-LYTE Assay)) EUB0001632a DYRK4; conditions: at 10 µM
T4 sequence (whole entry): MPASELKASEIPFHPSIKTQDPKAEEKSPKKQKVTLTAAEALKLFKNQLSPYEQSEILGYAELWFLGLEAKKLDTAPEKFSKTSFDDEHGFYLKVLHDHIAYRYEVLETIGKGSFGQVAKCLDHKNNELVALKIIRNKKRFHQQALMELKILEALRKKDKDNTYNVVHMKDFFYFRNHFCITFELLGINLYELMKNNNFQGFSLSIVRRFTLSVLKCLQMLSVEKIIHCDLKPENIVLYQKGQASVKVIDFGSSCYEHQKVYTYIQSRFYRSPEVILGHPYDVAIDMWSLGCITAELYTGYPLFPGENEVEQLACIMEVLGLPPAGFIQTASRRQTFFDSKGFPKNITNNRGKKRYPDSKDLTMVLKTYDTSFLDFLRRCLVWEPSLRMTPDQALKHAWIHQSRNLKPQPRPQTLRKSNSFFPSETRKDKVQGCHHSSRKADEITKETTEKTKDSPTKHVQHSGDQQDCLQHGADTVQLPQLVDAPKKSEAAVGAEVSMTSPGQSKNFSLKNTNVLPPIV

[14] = molecular target: Calcium/calmodulin-dependent protein kinase kinase 2 (Homo sapiens) (UniProt Q96RR4); assay: Selectivity interaction (ProQinase) EUB0000171b CAMKK2
[15] = molecular target: T2, Serine/threonine-protein kinase 17A (Homo sapiens); assay: Selectivity interaction (ProQinase) EUB0000171b STK17A

Sequence of Calcium/calmodulin-dependent protein kinase kinase 2 (Homo sapiens) (Q96RR4 2-588 limits assumed): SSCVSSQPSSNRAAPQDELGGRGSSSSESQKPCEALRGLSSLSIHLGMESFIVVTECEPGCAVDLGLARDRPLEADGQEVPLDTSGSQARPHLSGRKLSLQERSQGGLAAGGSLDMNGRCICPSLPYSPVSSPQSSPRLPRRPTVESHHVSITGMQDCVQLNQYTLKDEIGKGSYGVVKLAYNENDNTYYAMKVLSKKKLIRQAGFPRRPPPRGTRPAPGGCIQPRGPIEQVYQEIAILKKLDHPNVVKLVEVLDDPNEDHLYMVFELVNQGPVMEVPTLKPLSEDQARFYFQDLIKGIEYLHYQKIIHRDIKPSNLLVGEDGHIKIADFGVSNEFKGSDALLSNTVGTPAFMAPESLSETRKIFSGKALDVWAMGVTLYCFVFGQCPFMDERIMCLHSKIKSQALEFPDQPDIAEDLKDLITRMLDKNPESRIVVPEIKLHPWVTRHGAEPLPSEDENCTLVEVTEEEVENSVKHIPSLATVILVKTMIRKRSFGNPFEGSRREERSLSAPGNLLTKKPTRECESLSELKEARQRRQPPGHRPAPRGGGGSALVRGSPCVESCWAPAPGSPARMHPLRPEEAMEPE
Sequence of Vascular endothelial growth factor receptor 2 (P35968 whole entry): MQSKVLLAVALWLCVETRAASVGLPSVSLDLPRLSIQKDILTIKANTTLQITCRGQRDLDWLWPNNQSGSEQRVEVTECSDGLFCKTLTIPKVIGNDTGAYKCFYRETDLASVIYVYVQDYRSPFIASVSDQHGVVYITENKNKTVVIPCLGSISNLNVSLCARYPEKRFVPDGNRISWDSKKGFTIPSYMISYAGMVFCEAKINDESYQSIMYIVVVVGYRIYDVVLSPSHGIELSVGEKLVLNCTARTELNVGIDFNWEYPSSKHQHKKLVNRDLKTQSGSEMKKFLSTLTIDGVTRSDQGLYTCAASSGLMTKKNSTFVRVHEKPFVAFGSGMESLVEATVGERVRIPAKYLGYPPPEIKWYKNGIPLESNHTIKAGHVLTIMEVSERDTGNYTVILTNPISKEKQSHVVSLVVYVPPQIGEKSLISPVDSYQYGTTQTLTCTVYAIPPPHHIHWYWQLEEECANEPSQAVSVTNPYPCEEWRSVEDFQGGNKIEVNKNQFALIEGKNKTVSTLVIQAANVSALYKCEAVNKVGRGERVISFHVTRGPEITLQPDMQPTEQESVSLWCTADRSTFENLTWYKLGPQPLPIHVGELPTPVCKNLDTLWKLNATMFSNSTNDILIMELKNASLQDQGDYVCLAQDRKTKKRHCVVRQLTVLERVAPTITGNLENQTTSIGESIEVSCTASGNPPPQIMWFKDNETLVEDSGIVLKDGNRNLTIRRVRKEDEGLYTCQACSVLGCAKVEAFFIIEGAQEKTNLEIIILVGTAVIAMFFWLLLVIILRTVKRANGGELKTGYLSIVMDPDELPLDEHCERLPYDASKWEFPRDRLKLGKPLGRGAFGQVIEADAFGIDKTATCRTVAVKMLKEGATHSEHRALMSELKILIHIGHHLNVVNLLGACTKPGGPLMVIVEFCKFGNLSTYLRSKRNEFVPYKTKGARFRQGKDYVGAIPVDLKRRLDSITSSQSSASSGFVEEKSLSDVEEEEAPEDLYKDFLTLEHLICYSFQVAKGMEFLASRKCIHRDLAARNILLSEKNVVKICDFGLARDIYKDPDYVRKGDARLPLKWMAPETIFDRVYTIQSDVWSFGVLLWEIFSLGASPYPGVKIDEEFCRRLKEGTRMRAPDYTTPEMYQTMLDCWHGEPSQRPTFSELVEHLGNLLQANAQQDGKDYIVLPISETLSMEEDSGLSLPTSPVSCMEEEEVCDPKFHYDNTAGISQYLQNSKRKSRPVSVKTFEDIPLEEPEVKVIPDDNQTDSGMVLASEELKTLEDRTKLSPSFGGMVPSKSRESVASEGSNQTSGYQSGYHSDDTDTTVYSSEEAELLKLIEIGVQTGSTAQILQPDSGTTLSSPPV
Sequence of RAF proto-oncogene serine/threonine-protein kinase (Homo sapiens) (P04049 whole entry): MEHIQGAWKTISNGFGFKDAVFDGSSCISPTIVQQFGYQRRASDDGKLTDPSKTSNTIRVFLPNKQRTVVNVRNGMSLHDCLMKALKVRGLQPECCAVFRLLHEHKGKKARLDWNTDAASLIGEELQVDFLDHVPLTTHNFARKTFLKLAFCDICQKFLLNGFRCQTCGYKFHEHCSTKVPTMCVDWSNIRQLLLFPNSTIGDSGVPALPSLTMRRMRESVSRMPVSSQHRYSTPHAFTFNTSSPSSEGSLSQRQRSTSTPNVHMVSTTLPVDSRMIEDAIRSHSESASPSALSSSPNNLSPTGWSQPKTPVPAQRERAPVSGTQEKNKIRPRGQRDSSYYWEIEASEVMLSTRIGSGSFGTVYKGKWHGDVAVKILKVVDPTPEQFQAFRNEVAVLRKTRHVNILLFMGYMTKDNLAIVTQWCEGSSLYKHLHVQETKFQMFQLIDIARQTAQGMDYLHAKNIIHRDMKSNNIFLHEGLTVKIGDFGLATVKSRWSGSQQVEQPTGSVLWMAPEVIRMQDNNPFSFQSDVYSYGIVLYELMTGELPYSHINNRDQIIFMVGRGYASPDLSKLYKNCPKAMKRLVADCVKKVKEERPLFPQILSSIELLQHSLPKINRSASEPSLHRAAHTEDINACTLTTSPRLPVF
Sequence of Dual specificity protein kinase CLK2 (P49760 whole entry, looked up): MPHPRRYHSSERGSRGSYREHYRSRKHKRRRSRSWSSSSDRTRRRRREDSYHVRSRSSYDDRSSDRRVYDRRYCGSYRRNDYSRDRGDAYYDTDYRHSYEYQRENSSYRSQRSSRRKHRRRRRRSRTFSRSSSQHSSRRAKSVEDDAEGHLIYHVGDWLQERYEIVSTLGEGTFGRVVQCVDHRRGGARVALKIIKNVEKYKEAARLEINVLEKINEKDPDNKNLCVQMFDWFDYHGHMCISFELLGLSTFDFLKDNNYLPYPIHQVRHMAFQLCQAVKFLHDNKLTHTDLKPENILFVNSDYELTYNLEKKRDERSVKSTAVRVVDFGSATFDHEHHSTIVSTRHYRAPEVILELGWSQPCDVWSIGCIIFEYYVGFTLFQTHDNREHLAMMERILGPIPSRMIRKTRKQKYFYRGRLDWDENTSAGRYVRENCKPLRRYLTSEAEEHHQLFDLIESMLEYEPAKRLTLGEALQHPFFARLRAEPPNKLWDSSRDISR
Sequence of Serine/threonine-protein kinase NIM1 (Q8IY84 whole entry): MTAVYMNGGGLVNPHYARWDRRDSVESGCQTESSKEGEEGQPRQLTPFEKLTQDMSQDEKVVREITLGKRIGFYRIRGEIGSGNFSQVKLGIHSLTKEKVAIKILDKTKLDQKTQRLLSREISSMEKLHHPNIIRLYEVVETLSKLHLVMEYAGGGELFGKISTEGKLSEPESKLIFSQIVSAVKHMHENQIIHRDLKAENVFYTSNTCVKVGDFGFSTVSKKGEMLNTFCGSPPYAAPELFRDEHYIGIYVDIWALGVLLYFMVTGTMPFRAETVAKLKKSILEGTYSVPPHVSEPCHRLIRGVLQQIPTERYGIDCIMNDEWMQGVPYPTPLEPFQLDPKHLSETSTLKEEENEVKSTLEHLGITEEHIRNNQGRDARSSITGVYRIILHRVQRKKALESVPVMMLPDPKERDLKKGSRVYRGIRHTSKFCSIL
Sequence of Serine/threonine-protein kinase Nek7 (Homo sapiens) (Q8TDX7 whole entry, looked up): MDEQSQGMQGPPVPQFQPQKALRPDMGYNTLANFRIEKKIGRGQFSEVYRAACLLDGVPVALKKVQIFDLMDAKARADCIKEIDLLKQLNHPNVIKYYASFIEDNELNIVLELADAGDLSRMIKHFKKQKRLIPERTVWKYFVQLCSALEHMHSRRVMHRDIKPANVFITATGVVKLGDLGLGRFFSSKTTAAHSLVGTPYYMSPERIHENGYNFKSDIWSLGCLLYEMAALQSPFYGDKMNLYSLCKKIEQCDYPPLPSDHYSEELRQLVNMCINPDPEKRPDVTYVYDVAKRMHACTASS
Sequence of Mitogen-activated protein kinase kinase kinase kinase 4 (O95819 2-1239 limits assumed): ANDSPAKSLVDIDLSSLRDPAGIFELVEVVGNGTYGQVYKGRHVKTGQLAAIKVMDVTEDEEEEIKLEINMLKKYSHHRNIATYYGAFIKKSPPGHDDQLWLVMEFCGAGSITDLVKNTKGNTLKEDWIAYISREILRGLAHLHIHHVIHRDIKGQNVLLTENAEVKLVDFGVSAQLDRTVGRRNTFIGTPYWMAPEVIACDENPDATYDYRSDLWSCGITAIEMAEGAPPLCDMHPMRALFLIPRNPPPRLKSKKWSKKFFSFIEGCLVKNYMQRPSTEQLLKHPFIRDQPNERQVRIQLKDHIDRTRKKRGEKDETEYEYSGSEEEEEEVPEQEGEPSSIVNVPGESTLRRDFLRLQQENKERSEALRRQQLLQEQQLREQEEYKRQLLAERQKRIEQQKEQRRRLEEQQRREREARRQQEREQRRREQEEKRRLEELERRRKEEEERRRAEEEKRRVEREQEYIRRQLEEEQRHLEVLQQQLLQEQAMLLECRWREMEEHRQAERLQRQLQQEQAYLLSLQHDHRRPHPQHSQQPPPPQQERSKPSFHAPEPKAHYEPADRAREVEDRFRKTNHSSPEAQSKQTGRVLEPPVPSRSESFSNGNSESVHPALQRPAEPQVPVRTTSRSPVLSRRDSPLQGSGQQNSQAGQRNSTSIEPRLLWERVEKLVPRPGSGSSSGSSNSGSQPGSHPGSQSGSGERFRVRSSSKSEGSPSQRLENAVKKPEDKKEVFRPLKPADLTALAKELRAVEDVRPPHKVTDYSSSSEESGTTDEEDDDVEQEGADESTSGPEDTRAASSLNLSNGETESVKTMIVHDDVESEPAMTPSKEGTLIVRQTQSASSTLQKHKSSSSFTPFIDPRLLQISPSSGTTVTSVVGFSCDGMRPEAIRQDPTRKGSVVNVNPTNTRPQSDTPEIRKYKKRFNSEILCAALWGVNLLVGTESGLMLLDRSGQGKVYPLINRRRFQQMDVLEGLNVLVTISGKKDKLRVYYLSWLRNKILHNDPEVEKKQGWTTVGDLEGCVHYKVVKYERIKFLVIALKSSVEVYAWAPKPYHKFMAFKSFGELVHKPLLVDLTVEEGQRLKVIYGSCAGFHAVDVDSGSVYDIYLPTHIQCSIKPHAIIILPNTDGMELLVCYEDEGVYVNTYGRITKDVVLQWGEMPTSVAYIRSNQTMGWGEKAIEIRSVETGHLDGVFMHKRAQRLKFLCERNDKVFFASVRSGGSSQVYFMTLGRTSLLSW

COc1cc(Nc2nc(C)cc(-c3cnn4nc(OC)ccc34)n2)cc(C(F)(F)F)c1
% of control [1]: 94%

C=CC(=O)Nc1ccc(C(=O)Nc2[nH]nc3c2CN(C(=O)N[C@H](CN(C)C)c2ccccc2)C3(C)C)cc1
% of engagement ([2]; Selectivity number of off-targets 0.0, Selectivity number of targets 233.0, Source Knowledge https://www.sciencedirect.com/science/article/pii/S2451945619300674?via%3Dihub): -1.5% | % of engagement [2]: -1.9%

Cc1cnc(Nc2ccc(F)cc2Cl)nc1-c1c[nH]c(C(=O)N[C@H](CO)c2cccc(Cl)c2)c1
% of inhibition [3]: 3%

Cc1cc([C@@H](C)Nc2ccccc2C(=O)O)c2nc(N3CCOCC3)cc(=O)n2c1 [AZD-6482]
% of control [4]: 100% | % of control [5]: 97% | % of control [6]: 100%

CN(C)CCOc1ccc(-c2nc(-c3ccncc3)c(-c3ccc4c(c3)CC/C4=N\O)[nH]2)cc1
% of control [7]: 69%

CNC(=O)Nc1ccc(-c2nc(N3CC4CCC(C3)O4)c3cnn(C4CCC5(CC4)OCCO5)c3n2)cc1
% of inhibition [8]: 0% | % of control [9]: 69% | % of inhibition [10]: -3% | % of control [11]: 100%

Cc1cc(C)cc([C@H]2c3cc(C)ccc3NC(=O)CN2C(=O)c2ccc(Br)s2)c1
% of activity ([12]; at 1 µM): 96% | % of activity ([12]; at 10 µM): 99.3%

Cn1cc(-n2cnc3c(NCc4nc5cc(Cl)c(Cl)cc5[nH]4)nc(N4CCOCC4)nc32)cn1
% of control [13]: 0.0605%

C=CC(=O)Nc1cccc(C(=O)Nc2ccc(Nc3cc(-c4[nH]c(SC)nc4C)ccn3)cc2)c1
% of control ([14]; at 1 µM): 83% | % of control ([14]; at 5 µM): 86% | % of control ([15]; at 1 µM): 78% | % of control ([15]; at 5 µM): 35%
